In ChEMBL document CHEMBL1201862, “PubChem BioAssay data set” (2004):
The source made the active and inactive calls.

Tests used:
[1] = blockers of CRF-binding protein–CRF-R2 complex – cell-based, uHTS hits, 384-well, dose response (AID 651639); assay type: functional, Homo sapiens; details: read-out: IC50_Mean
[2] = molecular target: T1, Corticotropin-releasing factor receptor 2/Corticotropin-releasing factor-binding protein (Homo sapiens, UniProt P24387+Q13324); experiment: Dose Response confirmation of uHTS hits for small molecule antagonists of the CRF-binding protein and CRF-R2 receptor complex.; assay type: functional; details: read-out: IC50_Mean
T1 sequence (Q13324 whole entry): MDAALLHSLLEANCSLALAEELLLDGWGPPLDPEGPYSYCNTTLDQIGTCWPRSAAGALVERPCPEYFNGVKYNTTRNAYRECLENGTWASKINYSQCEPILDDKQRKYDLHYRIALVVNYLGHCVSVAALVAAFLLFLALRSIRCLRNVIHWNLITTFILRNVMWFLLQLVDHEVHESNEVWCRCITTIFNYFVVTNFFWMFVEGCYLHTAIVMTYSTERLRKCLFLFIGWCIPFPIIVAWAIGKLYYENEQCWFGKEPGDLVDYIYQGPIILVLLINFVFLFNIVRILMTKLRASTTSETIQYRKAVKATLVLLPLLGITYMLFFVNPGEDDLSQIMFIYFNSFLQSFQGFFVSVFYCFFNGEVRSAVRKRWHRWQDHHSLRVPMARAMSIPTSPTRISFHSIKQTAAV
T1 sequence (P24387 whole entry): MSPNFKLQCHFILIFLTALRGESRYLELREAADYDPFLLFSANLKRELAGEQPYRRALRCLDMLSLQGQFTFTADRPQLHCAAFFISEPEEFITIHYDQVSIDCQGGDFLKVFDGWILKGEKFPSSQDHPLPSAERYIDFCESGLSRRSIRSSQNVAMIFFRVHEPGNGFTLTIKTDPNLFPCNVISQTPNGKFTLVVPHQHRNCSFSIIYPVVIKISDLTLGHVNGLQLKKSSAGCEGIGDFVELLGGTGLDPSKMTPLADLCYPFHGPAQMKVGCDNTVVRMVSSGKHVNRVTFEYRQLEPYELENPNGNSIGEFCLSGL

[3] = molecular target: T1, Corticotropin-releasing factor receptor 2/Corticotropin-releasing factor-binding protein; experiment: activators of CRF receptor 2 with binding protein – uHTS hits, confirmation (AID 602473); assay type: functional; details: read-out: EC50_Mean
[4] = Vero E6 cell cytotoxicity, dose response, cytotoxicity control for non-replicating M. tuberculosis project, secondary assay (AID 492998); assay type: functional, VeroE6; details: Vero C1008
[5] = THP-1 cell cytotoxicity, dose response, cytotoxicity control for non-replicating M. tuberculosis project (AID 489025); assay type: functional
[6] = nonselective StAR promoter luciferase inhibitors – cell-based, luminescence, luciferase reporter, counter-screen for LRH-1 inverse agonist project, dose response (AID 651969); assay type: functional
Steroidogenic factor 1 = Steroidogenic factor 1 (Homo sapiens, UniProt Q13285); experiment: Counterscreen for inverse agonists of the liver receptor homolog-1 (LRH-1; NR5A2): Luminescence-based cell-based high throughput dose response assay to identify inverse agonists of the Steroidogenic Factor 1 Nuclear Receptor (SF1; NR5A1).; assay type: functional
[7] = molecular target: Nuclear receptor subfamily 5 group A member 2 (Homo sapiens, UniProt O00482); assay type: functional, cell-based;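 note: HEK293T cells transfected with LRH-1 and a StAR promoter luciferase reporter; potency for inhibitors that lower LRH-1 driven reporter light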
cells = assay type: functional
[8] = fluconazole-exposed Candida albicans growth modulators – fluorescence, retest, confirmation (AID 2467); assay type: functional, cell-based
[9] = NIH-3T3 fibroblast cytotoxicity, dose response, cytotoxicity control, cell-based, fluorescence, Alamar Blue, secondary assay (AID 2327); assay type: functional;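 note: NIH-3T3 mouse fibroblasts cultured with fluconazole at 8 µg/mL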
[10] = molecular target: T2, Short transient receptor potential channel 4 (Mus musculus, UniProt Q9QUQ5); experiment: block of DAMGO-driven TRPC4 calcium entry – cell-based, HEK293 TRPC4/mu-opioid, Fluo-4 calcium, dose response (AID 434942); assay type: functional;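 note: potency of inhibitors blocking the TRPC4 calcium response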
T2 sequence (Q9QUQ5 whole entry): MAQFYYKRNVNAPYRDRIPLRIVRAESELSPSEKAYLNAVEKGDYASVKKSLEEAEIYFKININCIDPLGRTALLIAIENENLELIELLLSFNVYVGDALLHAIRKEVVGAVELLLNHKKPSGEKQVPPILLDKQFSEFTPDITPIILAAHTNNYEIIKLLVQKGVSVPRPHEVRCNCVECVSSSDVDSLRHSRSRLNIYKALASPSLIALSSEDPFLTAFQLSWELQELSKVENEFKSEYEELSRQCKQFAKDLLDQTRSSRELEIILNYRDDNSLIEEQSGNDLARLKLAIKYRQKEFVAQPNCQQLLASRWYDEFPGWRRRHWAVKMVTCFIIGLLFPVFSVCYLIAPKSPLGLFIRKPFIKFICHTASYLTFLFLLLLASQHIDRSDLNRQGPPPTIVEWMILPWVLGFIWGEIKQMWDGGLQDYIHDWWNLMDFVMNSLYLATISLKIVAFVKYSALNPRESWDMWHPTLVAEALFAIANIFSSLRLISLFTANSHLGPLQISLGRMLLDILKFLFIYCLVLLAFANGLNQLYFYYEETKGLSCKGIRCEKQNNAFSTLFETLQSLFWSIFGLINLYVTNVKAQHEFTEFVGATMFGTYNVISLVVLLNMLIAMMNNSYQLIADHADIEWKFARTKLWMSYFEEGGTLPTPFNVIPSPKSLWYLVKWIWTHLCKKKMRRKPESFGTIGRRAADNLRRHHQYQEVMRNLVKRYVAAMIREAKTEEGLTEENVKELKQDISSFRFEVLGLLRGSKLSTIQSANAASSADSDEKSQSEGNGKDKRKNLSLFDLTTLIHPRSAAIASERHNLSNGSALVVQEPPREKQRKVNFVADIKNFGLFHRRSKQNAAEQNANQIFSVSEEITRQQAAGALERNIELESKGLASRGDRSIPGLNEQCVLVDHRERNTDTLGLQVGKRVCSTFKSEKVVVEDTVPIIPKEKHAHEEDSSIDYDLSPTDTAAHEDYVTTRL

Troponin, cardiac muscle = Troponin, cardiac muscle (Homo sapiens, UniProt P19429+P45379+P63316); experiment: Fluorescence-based biochemical high throughput dose response assay for activators of the calcium sensitivity of cardiac Regulated Thin Filaments (RTF). [Related pubchem assays (depositor defined):AID493008, AID493018, AID504382, AID504383]; assay type: protein-complex assay
[11] = molecular target: T3, Replicative DNA helicase DnaB (Mycobacterium tuberculosis, UniProt P9WMR3); experiment: DnaB intein splicing inhibitors, dose response, biochemical, cell-free fluorescence (AID 449749); assay type: functional
T3 sequence (P9WMR3 whole entry): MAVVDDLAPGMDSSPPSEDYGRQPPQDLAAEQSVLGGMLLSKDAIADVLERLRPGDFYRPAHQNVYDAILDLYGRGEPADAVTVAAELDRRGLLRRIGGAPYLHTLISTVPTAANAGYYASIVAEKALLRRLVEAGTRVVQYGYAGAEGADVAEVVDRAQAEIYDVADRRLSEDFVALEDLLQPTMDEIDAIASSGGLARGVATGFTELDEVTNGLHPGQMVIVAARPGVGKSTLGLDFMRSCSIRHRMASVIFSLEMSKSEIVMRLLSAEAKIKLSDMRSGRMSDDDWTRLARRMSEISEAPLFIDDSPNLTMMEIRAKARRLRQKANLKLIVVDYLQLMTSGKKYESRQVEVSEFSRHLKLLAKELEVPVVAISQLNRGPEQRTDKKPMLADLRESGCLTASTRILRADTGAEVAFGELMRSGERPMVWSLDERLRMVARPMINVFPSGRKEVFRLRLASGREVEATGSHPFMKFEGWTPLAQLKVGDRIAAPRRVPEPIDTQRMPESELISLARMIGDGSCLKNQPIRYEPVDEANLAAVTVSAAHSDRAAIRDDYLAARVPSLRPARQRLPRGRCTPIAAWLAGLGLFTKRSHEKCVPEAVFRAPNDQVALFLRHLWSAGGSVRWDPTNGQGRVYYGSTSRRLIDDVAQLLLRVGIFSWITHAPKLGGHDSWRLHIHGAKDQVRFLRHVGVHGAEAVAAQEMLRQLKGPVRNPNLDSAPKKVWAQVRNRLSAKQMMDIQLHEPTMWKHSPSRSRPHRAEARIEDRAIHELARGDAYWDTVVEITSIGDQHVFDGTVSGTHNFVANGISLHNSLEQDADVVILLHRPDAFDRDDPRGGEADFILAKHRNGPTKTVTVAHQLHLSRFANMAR

Protein RecA = molecular target: T4, Protein RecA (Mycobacterium tuberculosis, UniProt P9WHJ3); experiment: Fluorescence Cell-Free Homogeneous Dose Retest to Identify Inhibitors of RecA-Intein Splicing Activity. [Related pubchem assays (depositor defined):AID2097, AID2223, AID489010, AID492950]; assay type: functional
T4 sequence (P9WHJ3 whole entry): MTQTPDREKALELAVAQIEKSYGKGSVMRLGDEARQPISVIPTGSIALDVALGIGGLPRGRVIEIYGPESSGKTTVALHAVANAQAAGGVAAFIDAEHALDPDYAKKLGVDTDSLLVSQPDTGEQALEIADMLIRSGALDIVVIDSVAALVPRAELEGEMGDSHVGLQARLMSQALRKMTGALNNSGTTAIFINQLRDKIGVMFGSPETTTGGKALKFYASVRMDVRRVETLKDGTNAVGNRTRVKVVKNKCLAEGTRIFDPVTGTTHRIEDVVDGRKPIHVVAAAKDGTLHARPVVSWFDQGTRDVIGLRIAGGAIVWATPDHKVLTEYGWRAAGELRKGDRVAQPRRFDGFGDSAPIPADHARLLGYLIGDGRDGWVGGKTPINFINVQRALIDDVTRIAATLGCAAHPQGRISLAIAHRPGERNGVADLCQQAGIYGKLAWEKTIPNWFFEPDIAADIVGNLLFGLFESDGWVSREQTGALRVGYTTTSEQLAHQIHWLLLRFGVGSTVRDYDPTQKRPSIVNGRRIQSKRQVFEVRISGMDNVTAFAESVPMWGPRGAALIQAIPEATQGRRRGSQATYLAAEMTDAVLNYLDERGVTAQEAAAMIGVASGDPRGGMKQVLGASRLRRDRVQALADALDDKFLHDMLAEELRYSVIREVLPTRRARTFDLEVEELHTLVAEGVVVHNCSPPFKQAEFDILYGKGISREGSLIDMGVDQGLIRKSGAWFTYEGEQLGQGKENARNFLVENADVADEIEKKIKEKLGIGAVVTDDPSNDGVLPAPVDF

[12] = molecular target: T5, Rac GTPase-activating protein 1 (Homo sapiens, UniProt Q9H0H5); experiment: blockers of MgcRacGAP-driven Rac1 GTP hydrolysis – biochemical, ADP Hunter fluorescence, primary and confirmatory, confirmation (AID 624330); assay type: functional
T5 sequence (Q9H0H5 whole entry): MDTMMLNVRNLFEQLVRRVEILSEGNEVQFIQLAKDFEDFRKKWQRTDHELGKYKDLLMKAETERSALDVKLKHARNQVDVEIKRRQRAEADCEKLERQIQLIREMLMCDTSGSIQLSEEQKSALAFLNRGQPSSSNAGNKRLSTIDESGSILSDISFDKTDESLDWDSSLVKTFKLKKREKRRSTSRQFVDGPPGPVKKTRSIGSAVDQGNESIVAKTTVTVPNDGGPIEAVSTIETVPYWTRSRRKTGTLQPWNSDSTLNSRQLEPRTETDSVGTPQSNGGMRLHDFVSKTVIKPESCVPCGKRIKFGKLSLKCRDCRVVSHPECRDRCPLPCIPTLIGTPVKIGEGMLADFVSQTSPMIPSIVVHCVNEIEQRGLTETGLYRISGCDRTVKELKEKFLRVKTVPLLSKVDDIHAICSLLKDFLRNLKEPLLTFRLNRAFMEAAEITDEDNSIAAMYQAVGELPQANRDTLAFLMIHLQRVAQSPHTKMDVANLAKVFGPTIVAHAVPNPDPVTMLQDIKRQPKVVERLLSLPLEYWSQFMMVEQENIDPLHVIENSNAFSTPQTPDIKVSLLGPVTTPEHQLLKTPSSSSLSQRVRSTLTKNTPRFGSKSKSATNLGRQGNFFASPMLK

[13] = viability loss in HeLa cells – cytotoxicity control for MgcRacGAP inhibitor project, dose response (AID 624300); assay type: functional

SMILES	IC50 [1]	IC50 [2]	EC50 [3]	IC50 [6]	IC50 (Steroidogenic factor 1)	IC50 [7]	also measured
COc1ccc(-c2cc3nc(C4CCN(C(=O)OC(C)(C)C)CC4)c(C(=O)O)cn3n2)cc1	7.23 µM (active)	13.1 µM (active)	> 53 µM (inactive)	–	–	–	–
Cc1onc(-c2ccccc2Cl)c1C(=O)ON=C(N)c1ccc([N+](=O)[O-])o1	–	–	–	35.9 µM (inactive)	0.309 µM (active)	0.495 µM (active)	CC50 [4]: 14.9 µM (active); CC50 [5]: 17.9 µM (active); IC50 (cells): 2.13 µM (active)
Oc1nc(Nc2ccc3c(c2)OCCO3)nnc1Cc1ccccc1	–	–	–	35.9 µM (inactive)	1.87 µM (active)	35.9 µM (inactive)	EC50 [8]: > 38 µM (not active); EC50 [9]: > 160 µM (inconclusive)
O=C(O)c1ccc(NC(=S)NC(=O)c2ccc(-c3ccccc3)cc2)cc1	5.93 µM (active)	6.04 µM (active)	> 53 µM (inactive)	–	–	–	EC50 [10]: 4.73 µM (active); EC50 (Troponin, cardiac muscle): > 71.5 µM (inactive); EC50 [8]: 1.28 µM (active); EC50 [9]: > 150 µM (inactive)
COc1ccc(N2C(=O)CSC23C(=O)N2c4c(cccc43)C(C)=CC2(C)C)cc1 (stereo unspecified)	4.46 µM (active)	11 µM (active)	> 53 µM (inactive)	–	–	–	AC50 [11]: 10.3 µM (active); EC50 (Protein RecA): 35.6 µM (active)
CC(O)(c1ccc(F)c(F)c1)c1nc(-c2ccc(S(C)(=O)=O)cc2)cs1 (stereo unspecified)	–	–	–	35.8 µM (inactive)	1.91 µM (active)	11.3 µM (inactive)	–
COc1cc(/C=N/NC(=S)NC2CC3CCC2C3)ccc1O (stereo unspecified)	–	–	–	–	–	–	IC50 [12]: 48.8 µM (active); CC50 [13]: 100 µM (active)
